Reference: ChEMBL document CHEMBL5543162, “Discovery of a Novel Orally Bioavailable FLT3-PROTAC Degrader for Efficient Treatment of Acute Myeloid Leukemia and Overcoming Resistance of FLT3 Inhibitors” (J Med Chem, 2024)
Calls of active or inactive are those of the source. The rule behind the calls is not given here.

Key:
MV4-11 [1] = test: Induction of cell cycle arrest at G1 phase in human MV4-11 cells at 1 nM incubated for 24 hrs by PI/RNase staining based flow cytometry relative to control; type: functional
[2] = Stability in mouse liver microsomes assessed as half life; type: ADME, Microsome
[3] = Stability in Sprague-Dawley rat intestinal fluid at 50 ug/ml incubated upto 8 hrs by LC-MS/MS analysis; type: ADME, tissue-based, Intestine; conditions: simulated gi fluid, at 50 µg/mL
[4] = test system: Protein cereblon/Receptor-type tyrosine-protein kinase FLT3 (Homo sapiens), P36888+Q96SW2 [UNDEFINED MUTATION]; test: PROTAC activity at CRBN/FLT3-ITD mutant in human MOLM-13 cells assessed as decrease in ERK level at 20 nM by Western blot analysis; type: cell-based; conditions: time <= 12.0 hrs, TDE = time-dependent effect
[5] = Antiproliferative activity against human PBMC cells at 30 to 1000 nM incubated for 48 hrs by CCK8 assay; type: toxicity, cell-based; conditions: 1 µM, dose 30-1000 nM
[6] = Stability in human liver microsomes assessed as intrinsic clearance; type: ADME, Microsome; conditions: read-out: CLH
MV4-11 [7] = test: Antitumor activity against human MV4-11 cells xenografted in nu/nu mouse at 2.5 mg/kg, po administered daily for 2 weeks relative to control; type: functional; conditions: MV4-11, 336 h, read-out: TGI
[8] = Toxicity in NSG mouse xenografted with human MV4-11 cells expressing luciferase assessed as physiological change at 10 mg/kg, po administered daily for 3 weeks; type: organism-based; conditions: in vivo, 504 h
Mus musculus [9] = test: Anti-leukemic activity in NSG mouse xenografted with human MV4-11 cells expressing luciferase assessed as decrease in CD45+/CD33+ cells proportion in peripheral blood at 1.25 to 10 mg/kg, po administered daily for 3 weeks; type: functional, organism-based; conditions: dose 1.25-10 mg/kg
Mus musculus [10] = test: Anti-leukemic activity in NSG mouse xenografted with human MV4-11 cells expressing luciferase assessed as decrease in CD45+/CD33+ cells proportion in spleen at 1.25 to 10 mg/kg, po administered daily for 3 weeks; type: functional, organism-based; conditions: dose 1.25-10 mg/kg
[11] = Stability in mouse liver microsomes assessed as hepatic clearance; type: ADME, Microsome
[12] = Antiproliferative activity against human THP-1 cells expressing wild-type FLT3 incubated for 48 hrs by CCK8 assay; type: toxicity, cell-based
[13] = test system: Protein cereblon/Receptor-type tyrosine-protein kinase FLT3 (Homo sapiens), P36888+Q96SW2 [UNDEFINED MUTATION]; test: PROTAC activity at CRBN/FLT3-ITD mutant in human MV4-11 cells assessed as decrease in ERK level incubated for 12 hrs by Western blot analysis; type: cell-based; conditions: dose <= 20.0 nM
[14] = Toxicity in nude mouse xenografted with human MV4-11 cells assessed as change in body weight at 120 mg/kg, po administered daily for 15 days; type: organism-based; conditions: in vivo, 360 h, time 15 day
[15] = test system: Protein cereblon/Receptor-type tyrosine-protein kinase FLT3 (Homo sapiens), P36888+Q96SW2 [UNDEFINED MUTATION]; test: PROTAC activity at CRBN/FLT3-ITD mutant in human MV4-11 cells assessed as decrease in S6K level incubated for 12 hrs by Western blot analysis; type: cell-based; conditions: dose <= 20.0 nM
[16] = test system: Protein cereblon/Receptor-type tyrosine-protein kinase FLT3 (Homo sapiens), P36888+Q96SW2 [UNDEFINED MUTATION]; test: PROTAC activity at CRBN/FLT3-ITD mutant in human MV4-11 cells assessed as decrease in ERK level at 20 nM by Western blot analysis; type: cell-based; conditions: time <= 12.0 hrs, TDE = time-dependent effect
[17] = AUC (0 to t) in Sprague-Dawley rat at 10 mg/kg, po measured for 24 hrs by LC-MS/MS analysis; type: ADME, organism-based; conditions: in vivo
BaF3 = test: Antiproliferative activity against mouse Ba/F3 cells expressing FLT3-ITD F691L mutant incubated for 48 hrs by CCK8 assay; type: functional, cell-based; conditions: BaF3, 48 h
MV4-11 [18] = test: In vivo PROTAC activity at CRBN/FLT3-ITD mutant in human MV4-11 cells xenografted in nu/nu mouse assessed as protein degradation at 1.25 mg/kg, po administered daily for 2 weeks by immunoblot analysis; type: functional, organism-based
[19] = Volume of distribution at steady state in Sprague-Dawley rat at 1 mg/kg, iv measured for 24 hrs by LC-MS/MS analysis; type: ADME, organism-based; conditions: in vivo, read-out: Vdss
MV4-11 [20] = test: Antiproliferative activity against human MV4-11 cells expressing FLT3-ITD mutant incubated for 48 hrs by CCK8 assay; type: functional, cell-based; conditions: MV4-11, 48 h
MV4-11 [21] = test: Antitumor activity against human MV4-11 cells expressing luciferase xenografted in NSG mouse assessed as decrease in leukemic burden at 2.5 to 10 mg/kg, po administered daily for 3 weeks by bioluminescence imaging; type: functional, organism-based; conditions: dose 2.5-10 mg/kg
[22] = Antiproliferative activity against human HL-60 cells expressing wild-type FLT3 incubated for 48 hrs by CCK8 assay; type: toxicity, cell-based
Cytochrome P450 2C8 = target: T1, Cytochrome P450 2C8 (Homo sapiens, UniProt P10632); test: Inhibition of CYP2C8 (unknown origin); type: ADME
T1 sequence (P10632 whole entry): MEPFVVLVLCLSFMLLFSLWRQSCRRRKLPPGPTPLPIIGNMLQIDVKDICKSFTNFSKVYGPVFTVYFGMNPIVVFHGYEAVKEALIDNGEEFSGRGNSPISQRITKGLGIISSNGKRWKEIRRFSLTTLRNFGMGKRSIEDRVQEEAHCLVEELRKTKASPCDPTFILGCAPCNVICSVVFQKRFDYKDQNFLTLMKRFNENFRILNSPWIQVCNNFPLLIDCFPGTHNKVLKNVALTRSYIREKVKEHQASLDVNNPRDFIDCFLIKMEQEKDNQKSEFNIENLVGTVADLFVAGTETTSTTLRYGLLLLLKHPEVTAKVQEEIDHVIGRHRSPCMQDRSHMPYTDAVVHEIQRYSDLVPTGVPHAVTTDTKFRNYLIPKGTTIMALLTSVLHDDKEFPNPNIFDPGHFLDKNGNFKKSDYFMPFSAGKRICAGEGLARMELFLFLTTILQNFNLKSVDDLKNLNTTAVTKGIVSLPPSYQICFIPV

[23] = test system: Protein cereblon/Receptor-type tyrosine-protein kinase FLT3 (Homo sapiens), P36888+Q96SW2 [UNDEFINED MUTATION]; test: PROTAC activity at CRBN/FLT3-ITD mutant in human MV4-11 cells assessed as protein degradation at 20 nM by Western blot analysis; type: cell-based; conditions: time <= 12.0 hrs, TDE = time-dependent effect
[24] = Toxicity in nu/nu mouse xenografted with human MV4-11 cells assessed as change in body weight at 1.25 to 10 mg/kg, po administered daily for 2 weeks; type: organism-based; conditions: in vivo, 336 h, dose 1.25-10 mg/kg
[25] = Stability in monkey liver microsomes assessed as hepatic clearance; type: ADME, Microsome; conditions: chlorocebus aethiops
[26] = Oral bioavailability in Sprague-Dawley rat at 10 mg/kg measured for 24 hrs by LC-MS/MS analysis; type: ADME, organism-based; conditions: in vivo
[27] = Stability in rat liver microsomes assessed as half life; type: ADME, Microsome
[28] = test system: Protein cereblon/Receptor-type tyrosine-protein kinase FLT3 (Homo sapiens), P36888+Q96SW2 [UNDEFINED MUTATION]; test: PROTAC activity at CRBN/FLT3-ITD mutant in human MOLM-13 cells assessed as protein degradation at 20 nM by Western blot analysis; type: cell-based; conditions: time <= 12.0 hrs, TDE = time-dependent effect
CYP3A4/CYP3A5 = CYP3A4/CYP3A5 (Homo sapiens, UniProt P08684+P20815); test: Inhibition of CYP3A4/CYP3A5 (unknown origin) using midazolam as substrate; type: ADME, protein assay; conditions: probe midazolam
[29] = test system: Protein cereblon/Receptor-type tyrosine-protein kinase FLT3 (Homo sapiens), P36888+Q96SW2 [UNDEFINED MUTATION]; test: PROTAC activity at CRBN/FLT3-ITD mutant in human MOLM-13 cells assessed as protein degradation at 100 nM incubated for 8 hrs in presence of bortezomib by Western blot analysis; type: cell-based
MOLM-13 = test: Antiproliferative activity against Quizartinib-resistant human MOLM-13 cells incubated for 48 hrs by CCK8 assay; type: functional, cell-based; conditions: MOLM-13, 48 h

Sequence of Protein cereblon/Receptor-type tyrosine-protein kinase FLT3 (Homo sapiens), P36888+Q96SW2 [UNDEFINED MUTATION] (P36888 whole entry, looked up, stated change not applied): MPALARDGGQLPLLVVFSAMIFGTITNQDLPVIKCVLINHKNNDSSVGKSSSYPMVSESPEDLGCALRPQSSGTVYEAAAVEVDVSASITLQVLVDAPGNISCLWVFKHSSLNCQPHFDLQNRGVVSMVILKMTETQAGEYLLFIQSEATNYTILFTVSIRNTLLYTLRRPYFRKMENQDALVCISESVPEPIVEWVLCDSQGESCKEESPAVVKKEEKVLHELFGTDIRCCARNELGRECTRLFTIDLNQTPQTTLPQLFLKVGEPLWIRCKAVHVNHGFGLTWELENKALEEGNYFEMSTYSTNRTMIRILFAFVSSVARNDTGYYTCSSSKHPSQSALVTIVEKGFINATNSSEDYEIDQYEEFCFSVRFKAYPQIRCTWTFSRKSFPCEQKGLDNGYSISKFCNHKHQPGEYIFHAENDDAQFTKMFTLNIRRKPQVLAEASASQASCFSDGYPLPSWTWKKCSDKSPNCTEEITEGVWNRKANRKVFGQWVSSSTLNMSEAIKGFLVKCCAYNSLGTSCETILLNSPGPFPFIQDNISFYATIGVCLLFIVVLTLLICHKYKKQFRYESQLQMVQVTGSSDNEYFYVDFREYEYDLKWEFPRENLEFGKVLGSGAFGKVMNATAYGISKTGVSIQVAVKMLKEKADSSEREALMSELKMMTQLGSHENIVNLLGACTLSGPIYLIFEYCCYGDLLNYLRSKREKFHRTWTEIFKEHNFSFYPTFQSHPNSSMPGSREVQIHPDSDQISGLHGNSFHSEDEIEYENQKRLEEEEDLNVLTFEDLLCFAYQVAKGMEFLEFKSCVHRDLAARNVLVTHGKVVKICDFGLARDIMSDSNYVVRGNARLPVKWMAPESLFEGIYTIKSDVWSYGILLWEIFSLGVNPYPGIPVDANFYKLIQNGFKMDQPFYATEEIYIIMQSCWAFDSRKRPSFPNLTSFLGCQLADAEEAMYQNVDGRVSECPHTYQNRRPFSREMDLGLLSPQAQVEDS
Sequence of Protein cereblon/Receptor-type tyrosine-protein kinase FLT3 (Homo sapiens), P36888+Q96SW2 [UNDEFINED MUTATION] (Q96SW2 whole entry, looked up, stated change not applied): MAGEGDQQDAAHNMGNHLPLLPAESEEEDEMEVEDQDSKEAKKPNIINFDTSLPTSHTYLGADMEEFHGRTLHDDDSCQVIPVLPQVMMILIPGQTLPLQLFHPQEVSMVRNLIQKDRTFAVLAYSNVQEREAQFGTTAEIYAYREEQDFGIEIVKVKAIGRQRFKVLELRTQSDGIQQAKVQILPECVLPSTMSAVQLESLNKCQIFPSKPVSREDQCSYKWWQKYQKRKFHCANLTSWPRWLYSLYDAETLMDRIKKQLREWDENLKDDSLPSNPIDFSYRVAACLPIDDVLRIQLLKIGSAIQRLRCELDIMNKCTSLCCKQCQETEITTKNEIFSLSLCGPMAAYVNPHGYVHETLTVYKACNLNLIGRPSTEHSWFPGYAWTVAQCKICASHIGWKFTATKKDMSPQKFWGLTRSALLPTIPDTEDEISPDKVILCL

**Q.** With `Cc1c(NC(=O)CN2CCN(CC3CCN(c4ccc5c(c4)C(=O)N(C4CCC(=O)NC4=O)C5=O)CC3)CC2)c[nH]c1/C=C1\C(=O)Nc2ccc(F)cc21` (stereo not drawn) as the compound, how does the Activity (MV4-11 [1]) read?
**A.** The Activity was 82%.

**Q.** What about the half-life [2] of the same compound?
**A.** The half-life was 58.9 min.

**Q.** What about the Stability [3] of the same compound?
**A.** The Stability was “Stable”.

**Q.** What about the Activity [4] of the same compound?
**A.** The Activity was “Tde”.

**Q.** And the Activity [5]?
**A.** The Activity was “Non-Toxic”.

**Q.** And the CLint scaled [6]?
**A.** Its CLint scaled is 23.1 mL/min/kg.

**Q.** What about the inhibition in vivo at 2.5 mg/kg (MV4-11 [7]) of the same compound?
**A.** The inhibition in vivo at 2.5 mg/kg was 84.4%.

**Q.** And the Activity [8]?
**A.** Its Activity is “Non-Toxic”.

**Q.** What about the Activity (Mus musculus [9]) of the same compound?
**A.** The Activity was “Active”.

**Q.** And the Activity (Mus musculus [10])?
**A.** The Activity was “Active”.

**Q.** What about the CLhep predicted [11] of the same compound?
**A.** The CLhep predicted was 45.7 mL/min/kg.

**Q.** And the IC50 at 48 h [12]?
**A.** Its IC50 at 48 h is 15.1 µM.

**Q.** What about the Activity [13] of the same compound?
**A.** The Activity was “Dose-Dependent Effect”.

**Q.** And the Activity [14]?
**A.** The Activity was “Non-Toxic”.

**Q.** And the Activity [15]?
**A.** The Activity was “Dose-Dependent Effect”.

**Q.** What about the Activity [16] of the same compound?
**A.** Its Activity is “Tde”.

**Q.** What about the AUC(0-t) at 24 h [17] of the same compound?
**A.** Its AUC(0-t) at 24 h is 14700 ng·h/mL.

**Q.** What about the IC50 (BaF3) of the same compound?
**A.** The IC50 was 66.2 nM.

**Q.** And the Activity (MV4-11 [18])?
**A.** Its Activity is “Active”.

**Q.** And the Vd [19]?
**A.** Its Vd is 3.5 L/kg.

**Q.** What about the IC50 (MV4-11 [20]) of the same compound?
**A.** Its IC50 is 39.9 nM.

**Q.** What about the Activity (MV4-11 [21]) of the same compound?
**A.** Its Activity is “Active”.

**Q.** What about the IC50 at 48 h [22] of the same compound?
**A.** The IC50 at 48 h was over 40 µM.

**Q.** What about the IC50 (Cytochrome P450 2C8) of the same compound?
**A.** The IC50 was over 50 µM.

**Q.** What about the Activity [23] of the same compound?
**A.** Its Activity is “Tde”.

**Q.** And the Activity [24]?
**A.** Its Activity is “Non-Toxic”.

**Q.** What about the CLhep predicted [25] of the same compound?
**A.** The CLhep predicted was 23.4 mL/min/kg.

**Q.** What about the bioavailability [26] of the same compound?
**A.** Its bioavailability is 53%.

**Q.** And the half-life [27]?
**A.** The half-life was 92.4 min.

**Q.** What about the Activity [28] of the same compound?
**A.** Its Activity is “Tde”.

**Q.** What about the IC50 (CYP3A4/CYP3A5) of the same compound?
**A.** Its IC50 is over 50 µM.

**Q.** What about the Activity [29] of the same compound?
**A.** Its Activity is “inactive”.

**Q.** What about the IC50 (MOLM-13) of the same compound?
**A.** The IC50 was 484 nM.
